Experimental data reported in patent US20170360726A1, “COMPOUNDS, COMPOSITIONS AND METHODS OF USE” (Aquinnah Pharmaceuticals, Inc., priority 2014, published 2017).
Read-outs that look alike come from different tables or passages of the source.

Tests used:
[1] = tested on: TDP-43 inclusions in PC12 cells stably expressing wild type (WT) TDP-43-GFP; test: Dose response assay for TDP-43 inclusion inhibition; type: cell-based; conditions: Rattus norvegicus, PC-12
Experimental: Example 3. Dose Response Assay for TDP-43 Inhibition
Exemplary compounds of the invention were evaluated for efficacy in inhibiting TDP-43 inclusions using a dose response assay. Briefly, PC12 cells stably expressing wild type (WT) TDP-43-GFP were stressed with 15 μM to induce TDP-43 inclusions. The cells were then treated with exemplary compounds of the invention and the inhibitory effect on TDP-43 inclusions was observed using fluorescent microscopy. The ratio of cells with TDP-43 inclusions was calculated based on the total number of cells with detectable GFP expression. A 12-point dose response curve was generated, and the IC50 for each compound tested was determined.

[2] = tested on: Embryonic mouse hippocampal neurons transduced with TDP-43 EGFP; test: Neuroprotection assay (dendrite length rescue); type: cell-based; conditions: average rescue total dendrite length; compound at 10 times the IC50, treated DIV7, 9, 11, fixed DIV12
Experimental: Example 4. Neuroprotection Assay
1× Hank's balanced salt solution (Ca—/Mg, 500 mL) and 10 mM HEPES, pH 7.25-7.3 (IM stock, 5 mL)
MEM (Earle salts+/Glutamine, 95 mL), FBS (to 2.5%, 2.5 mL), Pen/Strep (1×, 1 mL), glutamine (1×, 1 mL), and D-glucose (0.6% w/v, 0.6 g)
neurobasal media (96 mL), B27 supplement (2 mL), Pen/Strep (1 mL), and glutamine (1 mL).
Embryonic mouse hippocampal neurons were cultured according to Kaech, S. and Banker, G. (2006) Nat Protoc 1:2406-2415 and dissected at […] from CD1 mice. Once all the hippocampi were removed, they were placed in a 15 mL conical Falcon tube on ice and brought to a final volume of 4.5 mL with CMF dissection buffer. 0.5 mL of a 2.5% trypsin-EDTA solution was then added, and the mixture was incubated at 37° C. for 15 min. […] Neurons were traced and analyzed using NeuronJ.
Results of the neuroprotection assay for exemplary compounds of the invention are summarized in Table 1, wherein A represents an average rescue total dendrite length of >150%; B represents an average rescue total dendrite length of 100-149%; C represents an average rescue total dendrite length of 50-99%; D represents an average rescue total dendrite length of 0-49%; E represents an average rescue total dendrite length of <0%; and ND signifies that the average rescue total dendrite length was not determined.

[3] = inhibition of TDP-43 inclusions, PC12 cells expressing WT TDP-43-GFP, 12-point dose response, fluorescent microscopy, read-out: IC50

Row | SMILES | IC50 [1, 3] [nM] | Average Additive Dendrite Length (%) [2] | IC50 [1] [nM]
1 | CCc1cccc(C)c1NS(=O)(=O)c1ccccc1C(=O)N1CCCC1 [Compound 100, N-(2-ethyl-6-methylphenyl)-2-(pyrrolidine-1-carbonyl)-benzenesulfonamide] | > 500 | C (C represents an average rescue total dendrite length of 50-99%) | 
2 | CCc1cccc(C)c1NS(=O)(=O)c1cnccc1C(=O)N1CCCC1 [Compound 101, N-(2-ethyl-6-methylphenyl)-4-(pyrrolidine-1-carbonyl)pyridine-3-sulfonamide] | < 100 | C (C represents an average rescue total dendrite length of 50-99%) | 
3 | CCc1cccc(C)c1NS(=O)(=O)c1cccnc1 [Compound 102, N-(2-ethyl-6-methylphenyl)pyridine-3-sulfonamide] |  |  | 101 to 250
